From patent US3963727A, “1,2 Disubstituted benzimidazole derivatives” (Daiichi Seiyaku Co., Ltd., priority 1975, dated 1976)
“Also recorded” adds a separate entry of the source. Like-named read-outs stand apart in the source and are kept apart here.

How the values were obtained:
[1] = tested on: catalepsy; assay: Catalepsy Test in Rats; conditions: for Potency Ratio: catalepsy ED50, relative to haloperidol = 1.0; for dissociation between the dose effective against methamphetamine and the dose inducing catalepsy / catalepsy: rat, oral, in words; for dissociation between the dose effective against methamphetamine and the dose inducing catalepsy: comparison of anti-methamphetamine and catalepsy tests
Experimental: (§1) After medication, both legs of the rats were put on a horizontal metal bar, 12 cm apart from the floor, and the rats were forced to stand on hind legs. Observation of rat behavior was made 1, 2, 4, 6, 8, 10, 12 and 24 hours later.

[2] = Catalepsy Test in Rats; conditions: rat, in vivo, po
Experimental: as §1

[3] = tested on: gnawing (stereotyped behavior induced by apomorphine); assay: Anti-apomorphine Test in Rats; assay type: in vivo, rats of Wistar strain (male); conditions: for ED50: read-out: ED50 and Its Confidence Limit; for Potency Ratio: anti-apomorphine ED50, relative to haloperidol = 1.0
Experimental: Six male rats of Wistar strain weighing 120 to 200 g were used at each dosage level. […] The effect against apomorphine was taken as positive when gnawing behavior was not noticed during the observation period of 1 minute. ED50 was calculated from the dose inhibition percet relationship.

[4] = tested on: conditioned avoidance (avoidance failure); assay: Conditioned Avoidance Test by Shuttle Box; assay type: in vivo, rats of Wistar strain (male); conditions: for ED50: read-out: ED50 and Its Confidence Limit; for Potency Ratio: conditioned avoidance ED50, relative to haloperidol = 1.0
Source text: Use was made of a shuttle box consisted of two chambers divided by a plate with a square hole. The floor of each chamber was made of steel-rod grid which can be charged electrically. The whole apparatus was maintained in a sound proof room. The training schedule was as follows. Each trial was initiated by supplying the sound of buzzer as conditioned stimulus for 3 seconds. Unless the rats escaped to another compartment […] thereafter, the grid floor was electrified for 4 seconds as unconditioned stimulus. Each rat was trained for more than 2 weeks with a daily session of 30 trials at an interval of 60 seconds.
Six rats per group were subjected to 10 consecutive trails 1, 2, 4, 6, 8 and 10 hours after medication, respectively. In this case, a 3-second interval was taken between the termination of the conditioned stimulus and the onset of the unconditioned one. ED50 values at each time were calculated from the average percentages of avoidance failure.

[5] = tested on: stereotyped behavior induced with methamphetamine hydrochloride; assay: Anti-methamphetamine Test in Rats; conditions: for ED50: Rattus norvegicus, po, read-out: ED50 and Its Confidence Limit; for Potency Ratio: anti-methamphetamine ED50, relative to haloperidol = 1.0; for suppressing methamphetamine-induced stereotypy: rat, oral, in words
[6] = in vivo; conditions: rat, po
Experimental: as §1

[7] = tested on: catalepsy; conditions: rat, in vivo
Experimental: as §1

[8] = rat, oral, apomorphine 1.25 mg/kg i.v., time of maximum effect 2 hrs

## O=C(CCCN1CCC(n2c(O)nc3ccccc32)CC1)c1ccc(F)cc1 [Benperidol, reference compound]
[1]
  Potency Ratio: 0.95
  dissociation between the dose effective against methamphetamine and the dose inducing catalepsy: exhibit both the effects at almost the same dose level; also recorded: exhibit simultaneously both desired and undesired side-effects to almost the same extent at their effective dosages
[2]
  ED50 at 8 h: 0.92 mg/kg
[3]; Rattus norvegicus, po, 1 h
  ED50: 0.62 mg/kg
[3]
  Potency Ratio: 1.1
[4]; Rattus norvegicus, po, 4 h
  ED50: 0.81 mg/kg
[4]
  Potency Ratio: 0.7
[5]; 2 h
  ED50: 0.44 mg/kg
[5]
  Potency Ratio: 1.1

## O=C(CCCN1CCC(n2c(S)nc3ccccc32)CC1)c1ccc(F)cc1 [Compound A, 1-[1-(3-(4-fluorobenzoyl)propyl)-4-piperidyl]-2-mercaptobenzimidazole]
[1]
  Potency Ratio: 3.5
  dissociation between the dose effective against methamphetamine and the dose inducing catalepsy: marked dissociation
  catalepsy: produce catalepsy only in higher doses
[2]
  ED50 at 10 h: 0.25 mg/kg
[3]
  Potency Ratio: 7.5
[3]; [8]
  ED50: 0.095 mg/kg
[4]
  Potency Ratio: 8.8
[4]; shuttle box, rat, oral, time of maximum effect 6 hrs
  ED50: 0.06 mg/kg
[5]; 2 h
  ED50: 0.054 mg/kg
[5]
  Potency Ratio: 8.9
  suppressing methamphetamine-induced stereotypy: highly effective in suppressing methamphetamine-induced stereotypy

## CSc1nc2ccccc2n1C1CCN(CCCC(=O)c2ccc(F)cc2)CC1 [Compound B, 1-[1-(3-(4-fluorobenzoyl)propyl)-4-piperidyl]-2-methylmercaptobenzimidazole]
[1]
  Potency Ratio: 1.3
  dissociation between the dose effective against methamphetamine and the dose inducing catalepsy: marked dissociation
  catalepsy: produce catalepsy only in higher doses
[2]
  ED50 at 10 h: 0.68 mg/kg
[3]
  Potency Ratio: 1.7
[3]; [8]
  ED50: 0.41 mg/kg
[4]
  Potency Ratio: 1.6
[4]; shuttle box, rat, oral, time of maximum effect 4 hrs
  ED50: 0.34 mg/kg
[5]; 1 h
  ED50: 0.17 mg/kg
[5]
  Potency Ratio: 2.8
  suppressing methamphetamine-induced stereotypy: highly effective in suppressing methamphetamine-induced stereotypy

## O=C(CCCN1CCC(O)(c2ccc(Cl)cc2)CC1)c1ccc(F)cc1 [Haloperidol, reference compound]
[1]
  dissociation between the dose effective against methamphetamine and the dose inducing catalepsy: exhibit both the effects at almost the same dose level; also recorded: exhibit simultaneously both desired and undesired side-effects to almost the same extent at their effective dosages
[3]; Rattus norvegicus, po, 2 h
  ED50: 0.71 mg/kg
[6]
  ED50 at 8 h: 0.88 mg/kg
[7]
  Potency Ratio: 1.0
[4]; Rattus norvegicus, po, 4 h
  ED50: 0.53 mg/kg
[5]; 1 h
  ED50: 0.48 mg/kg
